Legend:
[1] = tested on: microglial cells; assay: Microglial activation and migration into the sub retina, Iba-1 staining of retina flat mounts; assay type: in vivo, RPE65/rd12 mice; conditions: eye drops 12.5 mg/ml TTF in DMSO twice daily, 6 days/week, 3 weeks; n=10; p=0.0063 vs placebo
Experimental: Eyes were lightly fixed in 4% PFA. The cornea, iris and lens were removed, the neuro-retina was peeled off and the RPE flat mount was incubated with Iba-1 antibodies (Wako chemicals, USA, 1:200 in PBS and 0.1% triton-X) for 16 hours at 4° C., followed by incubation with secondary Alexa Fluor® 488-AffiniPure Donkey Anti-Mouse IgG antibody (Jackson Immuno Research; USA, 1:400 in PBS with 0.2% DAPI) for 2 hours at room temperature. Samples were visualized using a fluorescent microscope (Olympus BX51) and recorded using the Olympus DP71 camera.
3 weeks old RPE65/rd12 mice were treated twice daily (6 days/week) for 3 weeks with eye drops containing 12.5 mg/ml (34.7 mM) TTF in DMSO (10pl/eye drop) or vehicle alone (DMSO). Each treatment consisted of one eye drop. Retina flat mounts of the treated and the control RPE65/rd12 mice were prepared as described above and stained for the microglial specific marker Iba-1.

[2] = TTF eye drops crossing the corneal barrier, HPLC of anterior chamber fluids; assay type: in vivo; conditions: eye drops 12.5 mg/ml in DMSO, rabbit
Experimental: TTF eye drops (12.5 mg/ml=34.7 mM in DMSO) or vehicle (DMSO) were dropped every 10 seconds on rabbit eyes (10 eye drops of 50 μL per eye−0.5 mL total volume). The eye fluids were collected 45 minutes or 3 hours later. About 100 microliters of anterior chamber fluids were collected from each eye. The eye fluids from both eyes of the same rabbit were pooled and the amount of TTF that penetrated the cornea was determined by IPLC analysis. Twenty microliters of pooled eye fluids were filtered and injected into an Agilent UIHPLC Infinity II 1290 device equipped with a Kinetex 5 μm EVO C18 column (250*4.6 mm). Running conditions were as follows: a 10-minute gradient was delivered at a flow rate of 1 mL/min: 5 minutes in a binary mobile phase which consisted of 0.5% acetic acid (in distilled water), and 5 minutes in acetonitrile in DDW. The detection was performed at a wavelength of 350 nm since, in eye fluids taken from naive rabbits or rabbits given eye drops containing DMSO only, there was no background at 350 nm interfering with the measurement. Under these conditions, the retention time of TTF is 5.086 minutes.

[3] = tested on: retinal photoreceptors; assay: TUNEL staining of photoreceptor layer (photoreceptor apoptosis); assay type: in vivo, RPE65/rd12 mice; conditions: eye drops 12.5 mg/ml TTF in DMSO twice daily, 6 days/week, 3 weeks; n=7; p=0.0013 vs placebo
Experimental: 3 weeks old RPE65/rd12 mice were treated twice daily (6 days/week) for 3 weeks with eye drops containing 12.5 mg/ml (34.7 mM) TTF in DMSO (10 μl/eye drop) or vehicle alone (DMSO).
Mice were euthanized using C02, the eyes were obtained and fixed in 10% formalin. Frozen sections were stained with TUNEL-TMR kit following manufacturer's instructions. The number of TUNEL positive nuclei in the outer nuclear layer was counted as well as the length of retinal sections. Results are shown in FIG. 6 as the number of TUNEL positive nuclei/mm retina.

[4] = Side effects after daily TTF eye drops (general health, retinal and corneal structure); assay type: in vivo; conditions: 12 weeks of daily treatment with TTF eye drops
Experimental: (§1) 3 weeks old RPE65/rd12 mice were treated twice daily (6 days/week) for 12 weeks with eye drops (10p1/eye drop) containing 12.5 mg/ml (34.7 mM) TTF (n=6) or vehicle alone (DMSO, n=6).

[5] = tested on: IL-1β; assay: IL-1β concentration in retinal lysates (ELISA); assay type: in vivo, RPE65/rd12 mice; conditions: eye drops 12.5 mg/ml TTF in DMSO twice daily, 6 days/week, 3 weeks; vs vehicle
Experimental: 3 weeks old RPE65/rd12 mice were treated twice daily (6 days/week) for 3 weeks with eye drops containing 12.5 mg/ml (34.7 mM) TTF in DMSO (10p1/eye drop) or vehicle alone (DMSO).
Each pair of retinas from the same mouse was homogenized in the same tube in 120 μl lysis buffer containing 10 mM TRIS pH 7.5, 100 mM NaCl, 1 mM EDTA, and 0.01% TRITON X-100. Protein concentration in each sample was determined in duplicates using a commercial kit: Pierce™ BCA Protein Assay Kit (23227), Thermo Fisher Scientific, IL, USA. IL-1β levels were tested using a commercial sandwich ELISA kit: Mouse IL-1 beta/IL-1F2 DuoSet ELISA (DY401). R&D Systems, Inc., MN, USA.

[6] = tested on: retinal function; assay: Dark-adapted electroretinogram (ERG), retinal function; assay type: in vivo, RPE65/rd12 mice; conditions: eye drops 12.5 mg/ml TTF twice daily, 6 days/week, 12 weeks; n=6; vs placebo eye drops
Experimental: as §1
For dark adapted ERG, the mice were placed in total darkness for at least 12 h prior to examination. Animals were anesthetized with intraperitoneal injection containing 75 mg/kg ketamine and 10 mg/kg xylazine. Pupils were dilated with topical 1% tropicamide and 10% phenylephrine HCl. ERGs were recorded from both eyes simultaneously, using golden wire loop electrodes positioned on each cornea. Chloride silver electrodes were inserted subcutaneously near the temporal canthi as reference. An additional ground electrode was placed on the tail. Tests were performed under dark adapted (scotopic), and light adapted (photopic) conditions. Five light stimuli at increasing intensities were used (0.0023, 0.25, 2.4, 4.4, 23.5 cd-s/m2). For dark adapted ERG, responses were averaged with stimulus intervals of 1 to 30 s depending on the stimulus light intensity.

[7] = tested on: retinal cone photoreceptors; assay: Eye cup cultures stained for M-cone opsin (cone photoreceptor cell death in vitro); assay type: cell-based; conditions: 8 nM TTF in growth media, 18 hours, eye cups of 21-day old RPE65/rd12 mice, vs vehicle (0.0115% DMSO)
Experimental: Eyes were obtained from 21-day old RPE65/rd12 mice, and the posterior segment was separated from the cornea, the lens, the iris, and the ciliary body under a surgical microscope. The eye cups were placed onto a microporous membrane (30 mm in diameter; Millicell-CM; Millipore, Bedford, MA) with the ganglion cell layer (GCL) facing up and the sclera facing the filter in a six-well culture plate. Each well contained 1 ml of culture medium consisting of 50% minimum essential medium/HEPES (Sigma, St. Louis, MO), 25% HBSS (Invitrogen, USA), and 25% heat inactivated fetal bovine serum (Invitrogen, USA) supplemented with 200 μM L-glutamine and 5.75 mg/ml glucose and 8 nM natural TTF (nTTF) or synthetic TTF (sTTF) or same volume of vehicle solution (0.0115% DMSO, control). The eye cups were maintained in culture at 37° C., 5% C02 incubator for 18 hours.
The eye cups were fixed with 4% paraformaldehyde (PFA) and embedded in sucrose for cryopreservation. […]
Sections from these eye cups were stained with antibodies directed against M-cone opsin (Milipore, USA) by incubating the sections with antibodies diluted 1:100 in 1% BSA (Sigma) for 16 hrs at 4° C. followed by extensive washing in PBS and 1 hour incubation with 488-AffiniPure Donkey Anti-Mouse IgG antibody (Jackson Immuno Research) at room temperature. […] The number of positively stained cells/mm retina was recorded. […]

## COc1cc(-c2oc3cc(OC)c(OC)c(O)c3c(=O)c2O)ccc1O [TTF, 3,5,4′-trihydroxy-6,7,3′-trimethoxyflavone]
[1]
  infiltrating subretinal microglia (mean±SD): 42±14 microglia cells/retina
[2]; 10 drops of 50 μL per eye, anterior chamber fluids
  crossing of the corneal barrier / penetration into the eye: can cross the corneal barrier and penetrate the eye
[2]; fluids collected at 45 minutes or 3 hours
  time of maximal concentration of TTF in eye fluids after eye drops instillation: 45 min
[3]
  TUNEL positive cells in the photoreceptor layer (mean±SE): 2±0.4 apoptotic cells/mm retina
[4]
  side effects (general health, retinal and corneal structure): no side effects were observed
[5]
  IL-1β concentration in the retina: reduced
[6]
  maximal dark-adapted ERG a-wave amplitude: significantly higher
  maximal dark-adapted ERG b-wave amplitude: significantly higher
[7]
  cone photoreceptor cell death in cultures of retinas: attenuates cone photoreceptor cell death

— patent US20240033246A1, “COMPOUNDS FOR TREATING EYE DISEASES AND DISORDERS” (The State of Israel, Ministry of Agriculture & Rural …, priority 2020, published 2024)
